{
  "source": "patent US11013714B2",
  "about": "“Use of homoeriodictyol (HED) for reducing the gastric acid secretion-stimulating effect of n-acetyl-4-aminophenol (Paracetamol)” (SYMRISE AG, priority 2016, dated 2021)",
  "key": {"HGT-1 cells [1]": {"test_system": "HGT-1 cells", "conditions": "cited from earlier work"}, "TAS2R39": {"target": "T1, TAS2R39 (Homo sapiens, UniProt P59534)", "T1 sequence (P59534 1-338)": "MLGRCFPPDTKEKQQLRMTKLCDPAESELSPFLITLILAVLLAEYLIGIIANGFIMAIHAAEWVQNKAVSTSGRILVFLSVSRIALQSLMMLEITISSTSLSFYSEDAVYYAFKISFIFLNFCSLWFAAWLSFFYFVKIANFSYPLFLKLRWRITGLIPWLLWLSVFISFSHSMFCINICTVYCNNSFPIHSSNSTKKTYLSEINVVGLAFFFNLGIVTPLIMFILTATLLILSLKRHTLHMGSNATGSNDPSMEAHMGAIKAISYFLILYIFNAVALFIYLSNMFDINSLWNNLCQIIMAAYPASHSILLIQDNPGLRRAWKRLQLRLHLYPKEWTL", "conditions": "Roland et al., J. Agric. Food Chem. 2013; cited from earlier work"}, "HGT-1 cells [2]": {"test_system": "HGT-1 cells", "experiment": "Proton secretion in HGT-1 cells (intracellular pH, SNARF-1-AM dye)", "type": "cell-based, human", "experimental": "Human parietal cells (human gastric tumour cell line, HGT-1) were used as cellular model. These were provided by Dr. C. Laboisse (Laboratory of Pathological Anatomy, Nantes, France). The cells are cultured at standard conditions at 37° C., 5% CO2 in DMEM (Dulbecco's Modified […] Medium) with 4 g/L glucose, 10% FBS, 2% L-glutamine and 1% Penicillin/Streptomycin. For measuring the intracellular proton concentration, the cells are treated with Trypsin/EDTA, the cellular viability was determined with Trypan blue staining and 100 000 cells/well were seeded in black 96-well plates. […] The cells in the 96-well plates are washed once with Krebs-Hepes-buffer (KRHP) and incubated with the dye in a concentration of 3 μM dissolved in KRHP for 30 min at 37° C. and 5% CO2. Afterwards, the cells are washed twice with KRHP and substances stimulating gastric acid secretion, as for example 3 mM caffeine, 0.3 mM Theobromine or 3 mM Paracetamol alone or in combination with substances for reducing the gastric acid stimulating effect of the above substances, for example Homoeriodictyol (HED), in various concentrations in phenol red free DMEM in a volume of 100 μL were added; as a further control, the substances stimulating gastric acid secretion as named above were tested alone. Homoeriodictyol is dissolved in double distilled water. The final concentration of solvent, which is added to the cells, is at most 1%. The fluorescent dye is excited at the wave length of 488 nm and the emission is measured at 580 nm and 640 nm. […] For the calibration curve, the cells are treated with a potassium buffer in different pH values of from 7.2 to 8.2 and 2 μM Nigericin. Nigericin equilibrates the intracellular and extracellular pH value so that the intracellular pH value can be defined. The intracellular H^+-concentration is obtained from the intracellular pH value. The intracellular proton index (IPX) is calculated by log 2 transformation of the ratio of treated cells and untreated cells (control) ([…].; Somoza, M. M.; Hofmann, T.; Somoza, V., Mol Nutr Food Res 2012, 56, 325-335; Rubach, M.; Lang, R.; Hofmann, T.; Somoza, V., Ann N Y Acad Sci 2008, 1126, 310-4; […].; Hofmann, T.; Somoza, V., J Agric Food Chem 2010, 58, 4153-61; Weiss, […].; Blumberg, S.; Frank, O.; Hofmann, T.; Somoza, V., J Agric Food Chem 2010, 58, 1976-85; Liszt, K. I.; Walker, J.; Somoza, V., J Agric Food Chem 2012, 60, 7022-7030; Walker, J.; Hell, J.; Liszt, […].; Hofmann, T.; Somoza, V., J Agric Food Chem 2012, 60, 1405-12). The number of indicated replicates relates to technical replicates (tr) or the number of total replicates (n), which results from the number of technical replicates multiplied with the number of biological replicates. […] Statistics: one-way Anova with Holm-Sidak post-hoc test. Significant differences (p<0.05) are indicated by letters."}, "TAS2R43": {"target": "T2, TAS2R43 (Homo sapiens, UniProt P59537)", "T2 sequence (P59537 1-309)": "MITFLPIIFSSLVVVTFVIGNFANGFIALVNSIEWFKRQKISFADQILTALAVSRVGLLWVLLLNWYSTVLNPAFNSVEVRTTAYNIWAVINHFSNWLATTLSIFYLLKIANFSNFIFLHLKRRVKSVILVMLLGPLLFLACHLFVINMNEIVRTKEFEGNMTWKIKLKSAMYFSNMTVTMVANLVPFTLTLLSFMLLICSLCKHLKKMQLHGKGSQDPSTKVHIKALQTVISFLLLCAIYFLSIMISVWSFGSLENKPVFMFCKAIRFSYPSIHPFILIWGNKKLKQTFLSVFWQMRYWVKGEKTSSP", "experiment": "Own experiments on bitter receptor TAS2R43"}},
  "note": "Values joined by “and” are separate entries in the source; they are usually repeats but may differ in a detail not shown here. Identical values can stand only once. Like-named read-outs stand apart in the source and are kept apart here.",
  "data": [
    {"compound": "Cn1c(=O)c2c(ncn2C)n(C)c1=O", "note": "[Caffeine, caffeine, reference compound]", "values": [
      {"measurement": "percentage increase (positive values) or decrease (negative values) of the proton secretion, mean", "setting": "HGT-1 cells [1]; 3 mM caffeine alone (DMEM), 10 minutes stimulation", "value": 54.80, "unit": "%"},
      {"measurement": "percentage increase (positive values) or decrease (negative values) of the proton secretion, mean", "setting": "HGT-1 cells [1]; 3 mM caffeine alone (DMEM), 10 minutes stimulation, listed as caffeine", "value": 55, "unit": "%"}
    ]},
    {"compound": "COc1cc(C2CC(=O)c3c(O)cc(O)cc3O2)ccc1O", "note": "(centres unmarked) [HED, 3′-Methoxy-4′,5,7-trihydroxy flavanone]", "values": [
      {"measurement": "effect at receptor type TAS2R39", "setting": "TAS2R39", "value": "agonist"},
      {"measurement": "percentage increase (positive values) or decrease (negative values) of the proton secretion, mean", "setting": "HGT-1 cells [2]; 3 mM Paracetamol + 0.003 mM HED, 10 minutes", "value": 10.96, "unit": "%"},
      {"measurement": "percentage increase (positive values) or decrease (negative values) of the proton secretion, mean", "setting": "HGT-1 cells [2]; 3 mM Paracetamol + 0.03 mM HED, 10 minutes", "value": "7% and 6.57%"},
      {"measurement": "percentage increase (positive values) or decrease (negative values) of the proton secretion, mean", "setting": "HGT-1 cells [2]; 3 mM Paracetamol + 0.3 mM HED, 10 minutes", "value": "−46.24", "unit": "%"},
      {"measurement": "effect on constitutive acid secretion", "setting": "HGT-1 cells [2]; 3 mM Paracetamol, addition of 0.3 mM HED, compared to control without active substances", "value": "significant reduction of the constitutive acid secretion"},
      {"measurement": "proton secretion induced by 3 mM Paracetamol", "setting": "HGT-1 cells [2]; addition of 0.003 or 0.03 mM HED", "value": "reduced"},
      {"measurement": "proton secretion increased by", "setting": "HGT-1 cells [2]; simultaneous incubation with 3 mM Paracetamol and 0.003 mM HED", "value": 11, "unit": "%"},
      {"measurement": "proton secretion reduced by", "setting": "HGT-1 cells [2]; simultaneous incubation with 3 mM Paracetamol and 0.3 mM HED", "value": 46, "unit": "%"},
      {"measurement": "effect at receptor type TAS2R43", "setting": "TAS2R43", "value": "antagonist"},
      {"measurement": "percentage increase (positive values) or decrease (negative values) of the proton secretion, mean", "setting": "HGT-1 cells [1]; 0.3 mM Theobromine + 0.003 mM HED, 10 minutes", "value": 21.56, "unit": "%"},
      {"measurement": "percentage increase (positive values) or decrease (negative values) of the proton secretion, mean", "setting": "HGT-1 cells [1]; 0.3 mM Theobromine + 0.03 mM HED, 10 minutes", "value": "14% and 13.79%"},
      {"measurement": "percentage increase (positive values) or decrease (negative values) of the proton secretion, mean", "setting": "HGT-1 cells [1]; 0.3 mM Theobromine + 0.3 mM HED, 10 minutes", "value": "−16.92", "unit": "%"},
      {"measurement": "percentage increase (positive values) or decrease (negative values) of the proton secretion, mean", "setting": "HGT-1 cells [1]; 3 mM caffeine + 0.03 mM HED, 10 minutes", "value": 38, "unit": "%"},
      {"measurement": "percentage increase (positive values) or decrease (negative values) of the proton secretion, mean", "setting": "HGT-1 cells [1]; 3 mM caffeine + 0.3 mM HED, 10 minutes", "value": "20% and 20.20%"},
      {"measurement": "proton secretion decreased by", "setting": "HGT-1 cells [1]; simultaneous incubation with 0.3 mM Theobromine and 0.3 mM HED", "value": 17, "unit": "%"},
      {"measurement": "effect on the proton secretion in HGT-1-cells", "setting": "HGT-1 cells [1]; sole HED, without gastric acid secretion-stimulating substances (WO 2014111436 A1)", "value": "no significant effect"}
    ]},
    {"compound": "CC(=O)Nc1ccc(O)cc1", "note": "[Paracetamol, N-(4-Hydroxyphenyl)acetamide]", "values": [
      {"measurement": "percentage increase (positive values) or decrease (negative values) of the proton secretion, mean", "setting": "HGT-1 cells [2]; 3 mM Paracetamol alone (DMEM), 10 minutes stimulation", "value": "24% and 24.10%"}
    ]},
    {"compound": "Cn1cnc2c1c(=O)[nH]c(=O)n2C", "note": "[Theobromine, reference compound]", "values": [
      {"measurement": "percentage increase (positive values) or decrease (negative values) of the proton secretion, mean", "setting": "HGT-1 cells [1]; 0.3 mM Theobromine alone (DMEM), 10 minutes stimulation", "value": "21% and 20.92%"}
    ]}
  ]
}
